Results published in publication PMC2653189 (PLoS ONE, 2009).
Read-outs that look alike come from different tables or passages of the source.

Experiments:
MCF7 = assay: Breast cancer cell line apoptosis assay (nucleosome ELISA); format: cell-based; settings: Homo sapiens, 24 hr, read-out: EC50 apoptosis induction
Experimental: (§1) Human breast carcinoma cell lines MDA-MB-468, MDA-MB-231, MBA-MD-435 and MCF7 were kindly provided by Dr. Powel H. Brown (Breast Cancer Center, Baylor College of Medicine). Breast cancer cell line, MDA-MB-453 was kindly provided by Dr. Shou Jiang (Breast Cancer Center, Baylor College of Medicine). All cell lines were grown in DMEM medium supplemented with 10% fetal bovine serum (FBS), 25,000 units penicillin G, 25,000 µg streptomycin, and 131.4 mg L-Glutamine and cultured in the incubator under the condition of 95% air, 5% CO2 at 37°C [33]. Cells were seeded at 2,500 cells/cm^2 into 12-well plates. At 80% confluency, cells were washed with PBS and supplemented with fresh medium containing compound or the topoisomerase I-inhibitor, camptothecin, at 0, 0.1, 0.3, 1, 3, 10, 30, 100, 300 µM. At 24 hours, treatment was terminated by removing the medium from each well. Cells were lysed with cell lysis buffer (600 µl for 30 minutes at 25°C). Cell lysate (200 µl) was centrifuged at 200 g for 10 minutes and 20 µl of each supernatant was assayed for nucleosomes using the Cell Death Detection ELISA (Roche Applied Science) as described by the manufacturer. The percent maximum nucleosome level was calculated by dividing the nucleosome level by the maximum nucleosome level achieved in the assay and multiplying by 100. This value was plotted as a function of the log compound concentration and the best-fitting curve and EC50 value determined using 4-Parameter Logistic Model/Dose Response/XLfit 4.2, IDBS software.
(§2) Figure 5 Apoptosis induction of breast cancer cell lines by compounds; selective apoptosis of cell lines that are Stat3 dependent. MDA-MB-468 (panel A), MDA-MB-231 (panel B), MDA-MB-435 (panel C), MCF7 (panel D) and MDA-MB-453 (panel E) were seeded in 12-well plates, grown overnight then treated with the indicated compound for 24 hr. Cells were centrifuged and the supernatants assayed for nucleosome levels by ELISA. The percent maximum nucleosome level was calculated (nucleosome level ÷ maximum nucleosome level achieved in the assay ×100) and plotted as a function of the log compound concentration. The best-fitting curve was determined using 4-ParameterLogistic Model/Dose Response One Site/XLfit 4.2, IDBS software and was used to determine the EC50 value (Table 3).

MDA-MB-453 = assay: as above; format: cell-based; settings: Homo sapiens, 24 hr, read-out: EC50 apoptosis induction
Experimental: as §1, §2

MDA-MB-435 = assay: as above; format: cell-based; settings: Homo sapiens, 24 hr, read-out: EC50 apoptosis induction
Experimental: as §1, §2

MDA-MB-231 = assay: as above; format: cell-based; settings: Homo sapiens, 24 hr, read-out: EC50 apoptosis induction
Experimental: as §1, §2

MDA-MB-468 = assay: as above; format: cell-based; settings: Homo sapiens, 24 hr, read-out: EC50 apoptosis induction
Experimental: as §1, §2

[1] = system: breast cancer cell lines with constitutive Stat3 activity—MDA-MB-468, MDA-MB-231 and MDA-MB-435; assay: Apoptosis assay, summary over the cell lines with constitutive Stat3 activity; format: cell-based; settings: Homo sapiens
Experimental: as §1, with “100.” for “100. This value was plotted as a function of the log compound concentration and the best-fitting curve and EC50 value determined using 4-Parameter Logistic Model/Dose Response/XLfit 4.2, IDBS software.”
as §2, with “MDA-MB-468” for “Figure 5 Apoptosis induction of breast cancer cell lines by compounds; selective apoptosis of cell lines that are Stat3 dependent. MDA-MB-468”

[2] = system: cell lines MDA-MB-453 and MCF7; assay: Apoptosis assay, summary over the cell lines without constitutive Stat3 activity; format: cell-based; settings: Homo sapiens, read-out: EC50 apoptosis induction, mean±SD over MDA-MB-453 and MCF7
Experimental: as §1, with “100.” for “100. This value was plotted as a function of the log compound concentration and the best-fitting curve and EC50 value determined using 4-Parameter Logistic Model/Dose Response/XLfit 4.2, IDBS software.”
as §2, with “MDA-MB-468” for “Figure 5 Apoptosis induction of breast cancer cell lines by compounds; selective apoptosis of cell lines that are Stat3 dependent. MDA-MB-468”

[3] = system: IFN-γ-mediated Stat1 phosphorylation; assay: Immunoblot of IFN-γ-mediated Stat1 phosphorylation in HepG2 cells; format: cell-based, human; settings: compound 300 µM 1 hour, IFN-γ 30 ng/ml 30 min
Experimental: (§3) The human hepatocellular carcinoma cell line (HepG2) was grown in 6-well plates under standard conditions. Cells were pretreated with compounds (0, 1, 3, 10, 30, 100 and 300 µM) for 1 hour then stimulated under optimal conditions with either interleukin-6 (IL-6; 30 ng/ml for 30 min) to activate Stat3 or interferon gamma (IFN-γ; 30 ng/ml for 30 min) to activate Stat1 [28]. Cultures were then harvested and proteins extracted using high-salt buffer, as described. Briefly, extracts were mixed with 2× sodium dodecyl sulfate (SDS) sample buffer (125 mM Tris-HCL pH 6.8; 4% SDS; 20% glycerol; 10% 2-mercaptoethanol) at a 1∶1 ratio and heated for 5 minutes at 100°C. Proteins (20 µg) were separated by 7.5% SDS-PAGE and transferred to polyvinylidene fluoride (PVDF) membrane (Millipore, Waltham, MA) and immunoblotted. Prestained molecular weight markers (BioRad; Hercules, CA) were included in each gel. Membranes were probed serially with antibody against Stat1 pY701 or Stat3 pY705 followed by antibody against Stat1 or Stat3 (Transduction labs, Lexington, KY) then antibody against β–actin (Abcam, Cambridge, MA). Membranes were stripped between antibody probing using Restore™ Western Blot Stripping Buffer (Thermo Fisher Scientific Inc., Waltham, MA) per the manufacturer's instructions. Horseradish peroxidase-conjugated goat-anti-mouse IgG was used as the secondary antibody (Invitrogen Carlsbad, CA) and the membranes were developed with enhanced chemiluminescence (ECL) detection system (Amersham Life Sciences Inc.; Arlington Heights, IL.).
Figure 2 Effect of compounds on ligand-mediated Stat3 and Stat1 phosphorylation. […] Cells were then stimulated with IL-6 (30 ng/ml) for 30 min. Protein extracts of cells were separated by SDS-PAGE, blotted and developed serially with antibodies to pStat3, total Stat3 and β-actin. Blots were stripped between each antibody probing. Band intensities were quantified by densitometry. The value of each pStat3 band was divided by its corresponding total Stat3 band intensity; the results were normalized to the DMSO-treated control value. This value was plotted as a function of the log compound concentration. The best-fitting curve was determined using 4-Parameter Logistic Model/Dose Response/XLfit 4.2, IDBS software and was used to calculate the IC50 value (Table 1). Each panel is representative of 3 or more experiments. In panel G, HepG2 cells were pretreated with DMSO alone or DMSO containing each of the compounds at a concentration of 300 µM for 60 min. Cells were then stimulated with IFN-γ (30 ng/ml) for 30 min. Protein extracts of cells were separated by SDS-PAGE and immunoblotted serially with antibodies to pStat1, total Stat1 and β-actin. Blots were stripped between each immunoblotting. The results shown are representative of 2 or more experiments.

[4] = system: IL-6-mediated Stat3 nuclear translocation (GFP-Stat3α); assay: HTFM nuclear translocation assay in MEF/GFP-Stat3α cells; format: cell-based, murine
Experimental: Confocal and high-throughput fluorescence microscopy (HTFM) of MEF/GFP-Stat3α cells were performed as described. Briefly, for confocal fluorescence microscopy, cells were grown in 6-well plates containing a cover slip. For HTFM, cells were seeded into 96-well CC3 plates at a density of 5,000 cells/well using an automated plating system. Cells were cultured under standard conditions until 85–90% confluent. Cells were pre-treated with compound for 1 hour at 37°C then stimulated with IL-6 (200 ng/ml) and IL-6sR (250 ng/ml) for 30 minutes to provide optimal Stat3 activation and nuclear translocation in these cells, as described. Cells were fixed with 4% formaldehyde in PEM Buffer (80 mM Potassium PIPES, pH 6.8, 5 mM EGTA pH 7.0, 2 mM MgCl2) for 30 minutes at 4°C, quenched in 1 mg/ml of NaBH4 (Sigma) in PEM buffer and counterstained for 1 min in 4,6-diamidino-2-phenylindole (DAPI; Sigma; 1 mg/ml) in PEM buffer. Cover slips were examined by confocal fluorescent microscopy. Plates were analyzed by automated HTFM using the Cell Lab IC Image Cytometer (IC100) platform and Cytoshop Version 2.1 analysis software (Beckman Coulter). Nuclear translocation is quantified by using the fraction localized in the nucleus (FLIN) measurement. FLIN values were normalized by subtracting the FLIN for unstimulated cells then dividing this difference by the maximum difference (delta, Δ) in FLIN (FLIN in cells stimulated with IL-6/sIL-6R in the absence of compound minus FLIN of unstimulated cells). This ratio was multiplied by 100 to obtain the percentage of maximum difference in FLIN and was plotted, where indicated, as a function of the log compound concentration. The best-fitting curve and IC50 value were determined using 4-Parameter Logistic Model/Dose Response/XLfit 4.2, IDBS software.
Figure 4 Inhibition of cytoplasmic-to-nuclear translocation of Stat3 assessed by confocal and high-throughput fluorescence microscopy (HTFM). […] Coverslips were examined by confocal fluorescent microscopy using filters to detect GFP (column one), DAPI (column two) or both (merge; column three). In panel B, MEF-GFP-Stat3 cells were grown in 96-well plates with optical glass bottoms and pre-treated with the indicated compound at the indicated concentrations in quadruplicate for 1 hour then stimulated with IL-6 (200 ng/ml) and IL-6sR (250 ng/ml) for 30 minutes. Cells were fixed and the plates were examined by high-throughput microscopy to determine the fluorescence intensity in the nucleus (FLIN). The percent of maximum change (delta, Δ) in FLIN was calculated as described in the Methods and plotted as a function of the log of the compound concentration. […] Best-fit curves were determined using 4-Parameter Logistic Model/Dose Response/XLfit 4.2, IDBS software and were used to calculate the IC50 values (Table 2).

[5] = system: IL-6-mediated phosphorylation of Stat3; assay: Immunoblot of IL-6-mediated Stat3 phosphorylation in HepG2 cells; format: cell-based; settings: Homo sapiens, compound 60 min, then IL-6 30 ng/ml 30 min, read-out: pStat3 IC50, inhibition of IL-6-mediated Stat3 phosphorylation
Experimental: as §3
Figure 2 Effect of compounds on ligand-mediated Stat3 and Stat1 phosphorylation. […] Cells were then stimulated with IL-6 (30 ng/ml) for 30 min. Protein extracts of cells were separated by SDS-PAGE, blotted and developed serially with antibodies to pStat3, total Stat3 and β-actin. Blots were stripped between each antibody probing. Band intensities were quantified by densitometry. […] The best-fitting curve was determined using 4-Parameter Logistic Model/Dose Response/XLfit 4.2, IDBS software and was used to calculate the IC50 value (Table 1). […]

Stat3 = Stat3 (Homo sapiens, UniProt P40763); assay: Stat3/pY-peptide binding assay (SPR, BIAcore)
Chain of Stat3 (P40763 whole entry, species assumed): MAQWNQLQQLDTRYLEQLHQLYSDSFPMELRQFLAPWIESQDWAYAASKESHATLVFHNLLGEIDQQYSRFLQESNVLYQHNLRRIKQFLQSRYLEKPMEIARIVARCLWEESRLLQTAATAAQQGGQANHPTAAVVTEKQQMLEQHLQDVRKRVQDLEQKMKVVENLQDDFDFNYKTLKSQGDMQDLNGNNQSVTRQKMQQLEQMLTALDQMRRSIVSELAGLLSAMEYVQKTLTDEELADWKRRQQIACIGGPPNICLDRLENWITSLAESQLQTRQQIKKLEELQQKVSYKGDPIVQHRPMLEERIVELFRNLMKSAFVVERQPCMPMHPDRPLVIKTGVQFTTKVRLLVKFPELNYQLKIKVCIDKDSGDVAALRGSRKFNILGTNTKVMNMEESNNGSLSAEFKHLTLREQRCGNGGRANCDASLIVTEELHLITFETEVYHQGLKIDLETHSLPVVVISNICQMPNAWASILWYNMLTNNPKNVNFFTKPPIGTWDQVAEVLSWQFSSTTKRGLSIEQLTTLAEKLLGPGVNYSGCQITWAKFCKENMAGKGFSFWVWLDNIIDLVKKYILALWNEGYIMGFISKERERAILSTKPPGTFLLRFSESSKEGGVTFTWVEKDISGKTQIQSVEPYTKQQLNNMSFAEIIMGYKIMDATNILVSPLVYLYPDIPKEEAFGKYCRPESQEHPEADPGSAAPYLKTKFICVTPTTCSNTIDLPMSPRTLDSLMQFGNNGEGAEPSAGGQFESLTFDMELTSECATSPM
Experimental: A control (Stat3 with DMSO but without compound) was run at the beginning and the end of each cycle (40 sample injections) to ensure that the integrity of the sensor chip was maintained throughout the cycle run. The average of the two controls was normalized to 100% and used to evaluate the effect of each compound on Stat3 binding. Responses were normalized by dividing the value at 2 min by the response obtained in the absence of compounds at 2 min and multiplying by 100.

For `CC[C@@]1(O)C(=O)OCc2c1cc1n(c2=O)Cc2cc3ccccc3nc2-1` [CAM, camptothecin, reference compound], the EC50 (MCF7) was 0.13 µM, the EC50 (MDA-MB-453) was 0.93 µM and the EC50 (MDA-MB-435) was 1.64 µM. The EC50 (MDA-MB-231) was 1.62 µM and the EC50 (MDA-MB-468) was 0.74 µM.

`O=C(O)CSc1cc(NS(=O)(=O)c2ccc(C(=O)O)cc2)c2ccccc2c1O` [Cpd188, 4-[({3-[(carboxymethyl)thio]-4-hydroxy-1-naphthyl}amino)sulfonyl]benzoic acid] showed an EC50 ([1]; 24 hr, read-out: EC50 apoptosis induction, range over three cell lines) of 0.7 to 7 µM, an EC50 ([1]; read-out: EC50 apoptosis induction, mean±SD over three cell lines) of 3.9 ± 3.1 µM and an EC50 [2] of 16.4 ± 1.2 µM. It also gave an EC50 (MCF7) of 17.2 µM, an EC50 (MDA-MB-453) of 15.5 µM and an EC50 (MDA-MB-435) of 7.01 µM. For the same compound, the EC50 (MDA-MB-231) was 3.96 µM, the EC50 (MDA-MB-468) was 0.73 µM and the “Block of IFN-γ-stimulated Stat1 phosphorylation” value [3] was “did not”.

`CCN1C(=O)C(=Cc2ccc(-c3cc(C(=O)O)ccc3Cl)o2)C(=O)N(CC)C1=S` [Cpd30-12, 4-chloro-3-{5-[(1,3-diethyl-4,6-dioxo-2-thioxotetrahydro-5(2H)-pyrimidinylidene)methyl]-2-furyl}benzoic acid] was tested, and the IC50 ([4]; Mus musculus, compound 1 hour, then IL-6 200 ng/ml and IL-6sR 250 ng/ml 30 min, read-out: HTFM IC50, inhibition of IL-6-mediated Stat3 nuclear translocation) was over 300 µM, the “Block of ligand-mediated nuclear translocation of GFP-Stat3α (in words)” value ([4]; preincubation with compound) was “not” and the IC50 [5] was 60 µM. For the same compound, the “Block of IFN-γ-stimulated Stat1 phosphorylation” value [3] was “blocked Stat1 phosphorylation” and the IC50 (Stat3) was 114 µM.
